The values that follow come from PMC9054212, “Discovery of 4-(2-(dimethylamino)ethoxy)benzohydrazide derivatives as prospective microtubule affinity regulating kinase 4 inhibitors” (RSC Advances, 2020).

Molecules are shown by their SMILES.

`CN(C)CCOc1ccc(C(=O)NN=Cc2cccc([N+](=O)[O-])c2)cc1` [H5]: the melting point was 125 to 130 °C. The compound `CN(C)CCOc1ccc(C(=O)NN=Cc2ccc([N+](=O)[O-])cc2)cc1` [H6] returned a melting point of 96 to 100 °C. Compound `CN(C)CCOc1ccc(C(=O)NN=Cc2ccccc2O)cc1` [H7] came in with a melting point of 149 to 153 °C. `CN(C)CCOc1ccc(C(=O)NN=Cc2ccc(O)cc2)cc1` [H8] yielded a melting point of 109 to 114 °C.
